Test results reported in the NIST ThermoML archive (doi:10.1021/je0501890).
± gives the expanded uncertainty stated by the source.

Settings: 298.15 K; 101.33 kPa; Liquid

Compound	mass density	viscosity
CC(Cl)(Cl)Cl [1,1,1-trichloroethane]	1329.55 ± 1.1 kg/m3	0.789 ± 0.011 mPa·s
ClC(Cl)C(Cl)Cl [1,1,2,2-tetrachloroethane]	1586.65 ± 1.6 kg/m3	1.431 ± 0.019 mPa·s
ClCCCl [1,2-dichloroethane]	1245.64 ± 0.92 kg/m3	0.776 ± 0.011 mPa·s
CCCCCCCO [heptan-1-ol]	818.48 ± 0.68 kg/m3	5.818 ± 0.079 mPa·s
ClC(Cl)=C(Cl)Cl [tetrachloroethene]	1613.2 ± 1.6 kg/m3	0.839 ± 0.012 mPa·s
ClC=C(Cl)Cl [trichloroethene]	1455.65 ± 1.3 kg/m3	0.536 ± 0.008 mPa·s
